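These data come from cells grown in 96-well plates and exposed to compound for 48 hours at five concentrations. GI50 = concentration required for 50% inhibition of growth.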 Calls of active or inactive are those of the source. Rule as the data show it: active = GI50 up to about 1.1 µM and inactive = higher.
Experiments:
Assay in all cases: inhibition of tumour cell growth, NCI panel, 48 h
[1] = system: IGROV-1
[2] = system: Malme-3M
[3] = system: SW-620
[4] = system: M14
[5] = system: EKVX
[6] = system: SF-295
[7] = system: NCI-H460
[8] = system: UACC-62
[9] = system: HL-60
[10] = system: RXF 393
[11] = system: UACC-257
[12] = system: SK-MEL-28
[13] = system: OVCAR-4
[14] = system: MDA-MB-231
[15] = system: HOP-62
[16] = system: COLO 205
[17] = system: MDA-N
[18] = system: OVCAR-3
[19] = system: LOX IMVI
[20] = system: DU-145

Measured: GI50

Cc1cc(NS(=O)(=O)c2ccc(NC(=O)c3cccc4c(NNc5ccc(S(=O)(=O)N=C(N)N)cc5)c5ccccc5nc34)cc2)no1
inactive: [1] 45.6 µM | [2] 94.4 µM | [3] 60 µM | [4] > 100 µM | [5] 19.7 µM | [6] 69.7 µM | [7] 51.9 µM | [8] 42.9 µM | [9] 26.7 µM | [10] 46.8 µM | [11] > 100 µM | [12] 33.9 µM | [13] 58.7 µM | [14] 44.2 µM | [15] > 100 µM | [16] 91.6 µM | [17] 68.5 µM | [18] 41.2 µM | [19] 34.6 µM | [20] 51.5 µM

O=C(/C=C/c1ccc(O)c(O)c1)c1ccc(O)cc1O [BUTEIN]
inactive: [1] 15.2 µM | [2] 13.9 µM | [3] 8.53 µM | [4] 16.3 µM | [5] 26.9 µM | [6] 22.3 µM | [7] 15.2 µM | [8] 16.9 µM | [9] 3.29 µM | [10] 12.2 µM | [11] 15.6 µM | [12] 14.5 µM | [13] 19.1 µM | [14] 15.8 µM | [15] 17.4 µM | [16] 14.5 µM | [17] 6.14 µM | [18] 15.4 µM | [19] 8.26 µM | [20] 9.1 µM

O=C(NN1C(=O)c2ccccc2C1=O)c1ccccc1Nc1ccccc1C(=O)NN1C(=O)c2ccccc2C1=O
inactive: [1] > 100 µM | [2] > 100 µM | [3] > 100 µM | [4] > 100 µM | [5] > 100 µM | [6] > 100 µM | [7] > 100 µM | [8] > 100 µM | [9] > 100 µM | [10] > 100 µM | [11] > 100 µM | [12] > 100 µM | [13] > 100 µM | [14] > 100 µM | [15] > 100 µM | [16] > 100 µM | [17] > 100 µM | [18] > 100 µM | [19] > 100 µM | [20] > 100 µM

CN(C)C(=S)Oc1ccc2ccc(=O)oc2c1
inactive: [1] > 100 µM | [2] > 100 µM | [3] > 100 µM | [4] > 100 µM | [5] > 100 µM | [6] > 100 µM | [7] > 100 µM | [8] > 100 µM | [9] > 100 µM | [10] > 100 µM | [11] > 100 µM | [12] > 100 µM | [13] > 100 µM | [14] > 100 µM | [15] > 100 µM | [16] > 100 µM | [17] > 100 µM | [18] > 100 µM | [19] > 100 µM | [20] > 100 µM
